Structures can show the parent of a compound that is named as a salt. Where two headings read alike, the source gives them in different places.
Experiments:
[1] = Comparative single dose toxicokinetic study in dogs, 30 minutes intravenous infusion; format: in vivo, beagle dogs; conditions: for half-life / AUC(0-t) / Tmax / Cmax: beagle, dog; for half-life / AUC(0-t) / Tmax / Cmax / Tlast: plasma; for half-life: intravenous, estimable in one animal only, read-out: half-life; for AUC(0-t) / Tmax / Cmax: iv; for AUC(0-t) / Tmax / Cmax / Tlast: mean, labelled analyte; for Cmax: read-out: Cmax; for increase of systemic exposure with increasing doses, assuming dose proportionality: increasing doses of melflufen-d5 (III) infusion (1.25 and 2.5 mg/kg)
Description: A comparative single dose toxicity study in dogs was carried out, comparing melflufen-d5 (III) and melflufen to investigate the toxicokinetics of melflufen and melflufen-d5 (III) and their metabolites, desethyl-melflufen and melphalan, after a single intravenous administration of melflufen-d5 (III) or melflufen as 30 minutes infusion in the dog.
This study aimed to compare the potential acute toxicity of melflufen-d5 (III) and melflufen. The toxicokinetics of melflufen-d5 (III), melflufen and their metabolites desethyl-melflufen and melphalan were evaluated after a single intravenous administration as 30 minutes infusion in dogs.
Melflufen-d5 (III) or melflufen were given as 30 minutes infusion to male and female dogs according to the following scheme:
Blood samples were collected from peripheral vein on Day 1 at pre-dose, 15 min, 30 min (just prior to end of infusion), 40 min, 1 h, 2 h, 4 h and 6 h after the start of infusion).
Blood samples were collected into heparinized collection tubes, put in an ice-water bath and immediately centrifuged (3 minutes, 10000 g, +4° C.). The obtained plasma was divided into two aliquots, placed into pre-chilled cryovials and in a freezer at −70° C. until analysis.
Toxicokinetic Calculations Plasma toxicokinetic analyses for melflufen-d5 (III), melflufen and their metabolites, desethyl-melflufen and melphalan were performed according to standard non-compartmental approach using Phoenix WinNonlin system (v. 6.3, Certara Company, USA).
After administration, Cmax, maximum concentration, and Tmax, time at which the maximum concentration was achieved, were read as the coordinates of the highest plasma concentration of the time course. Clast, last detectable concentration, and Tlast, time of the last detectable concentration, were reported as parameters.
The area under plasma concentration vs. time curve up to the last detectable concentration, AUClast, was calculated by the linear trapezoidal rule.
t1/2,z, the half-life of the terminal phase, was calculated by linear regression analysis of the natural-log concentration vs. time curve according to the formula: […]
AUC∞ the area under plasma concentration vs. time curve up to infinite time, was calculated by adding the portion of the area calculated as Clast/λz to AUClast assuming mono-exponential decay.

[2] = tested on: primary cultures of human tumour cells; conditions: panels of primary cultures of human tumour cells; cited from earlier work
[3] = 2-fold melflufen-d5 (III) dose increase (1.25 to 2.5 mg/kg), combined genders
[4] = both sexes, 1.25 mg/kg, group 2: melflufen-d5 (III) 1.25 mg/kg 30 min infusion, M + F combined
[5] = both sexes, 2.5 mg/kg, group 3: melflufen-d5 (III) 2.5 mg/kg 30 min infusion, M + F combined
[6] = both sexes, 2.5 mg/kg, group 4: melflufen 2.5 mg/kg 30 min infusion, M + F combined
[7] = female, 1.25 mg/kg, group 2: melflufen-d5 (III) 1.25 mg/kg 30 min infusion, females
[8] = female, 2.5 mg/kg, group 3: melflufen-d5 (III) 2.5 mg/kg 30 min infusion, females
[9] = female, 2.5 mg/kg, group 4: melflufen 2.5 mg/kg 30 min infusion, females
[10] = male, 1.25 mg/kg, group 2: melflufen-d5 (III) 1.25 mg/kg 30 min infusion, males
[11] = male, 2.5 mg/kg, group 3: melflufen-d5 (III) 2.5 mg/kg 30 min infusion, males
[12] = male, 2.5 mg/kg, group 4: melflufen 2.5 mg/kg 30 min infusion, males
[13] = group 2: melflufen-d5 (III) 1.25 mg/kg 30 min infusion, M + F combined
[14] = group 2: melflufen-d5 (III) 1.25 mg/kg 30 min infusion, females
[15] = group 2: melflufen-d5 (III) 1.25 mg/kg 30 min infusion, males
[16] = group 3: melflufen-d5 (III) 2.5 mg/kg 30 min infusion, M + F combined
[17] = group 3: melflufen-d5 (III) 2.5 mg/kg 30 min infusion, females
[18] = group 3: melflufen-d5 (III) 2.5 mg/kg 30 min infusion, males
[19] = group 4: melflufen 2.5 mg/kg 30 min infusion, M + F combined
[20] = group 4: melflufen 2.5 mg/kg 30 min infusion, females
[21] = group 4: melflufen 2.5 mg/kg 30 min infusion, males

SMILES: N[C@@H](Cc1ccc(N(CCCl)CCCl)cc1)C(=O)N[C@@H](Cc1ccc(F)cc1)C(=O)O [desethyl-melflufen, (2S)-2-[[(2S)-2-amino-3-[4-[bis(2-chloroethyl)amino]phenyl]propanoyl]amino]-3-(4-fluorophenyl)propanoic acid]
- increase of AUClast of the metabolite with dose [1, 3]: 3.5 fold
- increase of Cmax of the metabolite with dose [1, 3]: 3.1 fold
- exposure relative to the parent compound exposure ([1]; after melflufen-d5 (III) infusion): about one-half
- half-life ([1]; 2.5 mg/kg, after melflufen 2.5 mg/kg (group 4)): 7 min
- half-life ([1]; 2.5 mg/kg, after melflufen-d5 (III) 2.5 mg/kg): 5 min
- AUC(0-t) [1, 4]: 0.0144 µM·h
- Tmax [1, 4]: 30 min
- Cmax [1, 4]: 33.2 nM
- AUC(0-t) [1, 5]: 0.0506 µM·h
- Tmax [1, 5]: 27.5 min
- Cmax [1, 5]: 102 nM
- AUC(0-t) [1, 6]: 0.0325 µM·h
- Tmax [1, 6]: 27.5 min
- Cmax [1, 6]: 71.4 nM
- average exposure to the metabolite after infusion of melflufen compared with after infusion of melflufen-d5 (III) ([1]; each at 2.5 mg/kg): lower
- AUC(0-t) [1, 7]: 0.0132 µM·h
- Tmax [1, 7]: 30 min
- Cmax [1, 7]: 30.8 nM
- AUC(0-t) [1, 8]: 0.0358 µM·h
- Tmax [1, 8]: 30 min
- Cmax [1, 8]: 70.3 nM
- AUC(0-t) [1, 9]: 0.0287 µM·h
- Tmax [1, 9]: 25 min
- Cmax [1, 9]: 60.5 nM
- increase of systemic exposure with increasing doses, assuming dose proportionality [1]: slightly more than expected
- no longer detectable after, post-dosing ([1]; labelled metabolite after 1.25-2.5 mg/kg melflufen-d5 (III) infusion): 40 to 60 min
- time of maximal plasma concentration ([1]; labelled metabolite after 1.25 and 2.5 mg/kg melflufen-d5 (III) infusion (groups 2 and 3)): 15 to 30 min
- AUC(0-t) [1, 10]: 0.0155 µM·h
- Tmax [1, 10]: 30 min
- Cmax [1, 10]: 35.6 nM
- AUC(0-t) [1, 11]: 0.0655 µM·h
- Tmax [1, 11]: 25 min
- Cmax [1, 11]: 134 nM
- AUC(0-t) [1, 12]: 0.0363 µM·h
- Tmax [1, 12]: 30 min
- Cmax [1, 12]: 82.2 nM
- Tlast [1, 13]: 0.667 h
- Tlast [1, 14]: 0.667 h
- Tlast [1, 15]: 0.667 h
- Tlast [1, 16]: 1.00 h
- Tlast [1, 17]: 1.00 h
- Tlast [1, 18]: 1.00 h
- Tlast [1, 19]: 0.945 h
- Tlast [1, 20]: 0.889 h
- Tlast [1, 21]: 1.00 h

SMILES: CCOC(=O)[C@H](Cc1ccc(F)cc1)NC(=O)[C@@H](N)Cc1ccc(N(CCCl)CCCl)cc1 [melflufen, L-Melphalanyl-4-fluoro-L-phenylalanine ethyl ester]
- efficacy, fold higher than melphalan [2]: 50 to 100 fold
- AUC(0-t) [1, 6]: 0.0433 µM·h
- Tmax [1, 6]: 20 min
- Cmax [1, 6]: 144 nM
- average exposure to melflufen, fold lower than that to melflufen-d5 (III) ([1]; each at 2.5 mg/kg (group 4 vs group 3)): 2 fold
- AUC(0-t) [1, 9]: 0.0539 µM·h
- Tmax [1, 9]: 25 min
- Cmax [1, 9]: 163 nM
- AUC(0-t) [1, 12]: 0.0326 µM·h
- Tmax [1, 12]: 15 min
- Cmax [1, 12]: 124 nM
- Tlast [1, 19]: 0.500 h
- Tlast [1, 20]: 0.500 h
- Tlast [1, 21]: 0.500 h
- time of peak in plasma ([1]; melflufen infused for 30 minutes at 2.5 mg/kg (group 4)): 15 to 30 min

SMILES: [2H]C([2H])([2H])C([2H])([2H])OC(=O)C(Cc1ccc(F)cc1)NC(=O)C(N)Cc1ccc(N(CCCl)CCCl)cc1 [melflufen-d5 (III), (^2H5)ethyl (2S)-2-[(2S)-2-amino-3-{4-[bis(2-chloroethyl)amino]phenyl}propanamido]-3-(4-fluorophenyl)propanoate hydrochloride]
- increase of exposure with the dose in terms of peak and area under the curve ([1]; 2.5 vs 1.25 mg/kg melflufen-d5 (III) (2-fold dose increase), combined gender parameters): 2.7 fold
- AUC(0-t) [1, 4]: 0.0336 µM·h
- Tmax [1, 4]: 22.5 min
- Cmax [1, 4]: 98.5 nM
- AUC(0-t) [1, 5]: 0.0902 µM·h
- Tmax [1, 5]: 22.5 min
- Cmax [1, 5]: 253 nM
- exposure after infusion of melflufen-d5 (III) compared to melflufen ([1]; equivalent doses): consistently higher
- AUC(0-t) [1, 7]: 0.0296 µM·h
- Tmax [1, 7]: 30 min
- Cmax [1, 7]: 99.3 nM
- AUC(0-t) [1, 8]: 0.0564 µM·h
- Tmax [1, 8]: 20 min
- Cmax [1, 8]: 159 nM
- increase of systemic exposure with increasing doses, assuming dose proportionality [1]: slightly more than expected
- AUC(0-t) [1, 10]: 0.0377 µM·h
- Tmax [1, 10]: 15 min
- Cmax [1, 10]: 97.7 nM
- AUC(0-t) [1, 11]: 0.124 µM·h
- Tmax [1, 11]: 25 min
- Cmax [1, 11]: 346 nM
- Tlast [1, 13]: 0.528 h
- Tlast [1, 14]: 0.50 h
- Tlast [1, 15]: 0.556 h
- Tlast [1, 16]: 0.611 h
- Tlast [1, 17]: 0.611 h
- Tlast [1, 18]: 0.611 h
- disappeared from plasma, time from start of dosing ([1]; melflufen-d5 (III) infused for 30 minutes at 1.25 and 2.5 mg/kg (groups 2 and 3)): ≤ 40 min
